Where two headings read alike, the source gives them in different places.
Key:
Towne GFP strain of HCMV = type: cell-based, Human Cytomegalovirus (HCMV); details: for inhibition of viral infection: HFF cells, MOI 0.5, 48 hours post infection
Method: The Towne strain of HCMV containing the Green Fluorescent Protein (GFP) expression cassette was obtained from Dr. Dan Streblow at the Oregon Health Science University and was propagated in human foreskin fibroblast (HFF) cells. Viral supernatants were collected, centrifuged to clear cell debris, and filtered through a 0.45 μm filter. HFF cells were grown in Dulbecco's modified Eagle medium (DMEM) supplemented with 10% fetal bovine serum (FBS), penicillin G (100 U/mL), streptomycin ([…]), and GLUTAMAX™ L-glutamine supplement (2 mM) from Invitrogen.
Human foreskin fibroblasts were seeded at the density of about 3.5×10^5 cells in each well of a 24-well plate about 24 hours prior to infection. The HFF cells were washed with 1×DPBS, and mock or virus infected for about 90 minutes at room temperature (RT) with the Towne GFP strain of HCMV at about 0.5 multiplicity of infection (MOI), preincubated with a range of concentrations of inhibitory peptides at about 37° C. for about 90 minutes. After the infection, virus mixture was removed and 10% FBS complete DMEM was added to each well and cells were incubated at about 37° C. for about 48 hours. GFP positive cells were visualized about 48 hours post infection by fluorescence microscopy and then quantified using flow cytometry. […] HFF cells were trypsinized, centrifuged, and resuspended in 1% FBS-Dulbecco's phosphate buffered saline (DPBS). GFP positive cells were quantified using flow cytometry (CYTOMICS FC 500 from Beckman Coulter, Fullerton, Calif.).
All of the synthetic peptides were tested at the following concentrations: about 100 μM, 50 μM, 25 μM, 10 μM, 5 μM, 2.5 μM, 1.25 μM, 0.625 μM, 0.3125 μM, 0.156 μM, and 0.078 μM.

HSV-1 McIntyre strain = assay: Inhibition of HSV-1 infection of Vero cells (Crystal Violet staining); type: cell-based, Herpes Simplex Virus 1 (HSV-1); details: MOI 0.001, peptide 2.5 to 100 μM; for inhibition of HSV-1 infection: 48 hours
Method: FIG. 6 illustrates inhibition of HSV-1 infection by HCMV gB peptides. To evaluate the ability of newly designed HCMV gB-specific peptide to inhibit HSV-1 infection, Vero cells were infected for about 90 minutes at room temperature with HSV-1 (McIntyre strain; MOI=0.001) that was preincubated with a range of concentrations of four different synthetic peptides at about 37° C. for about 90 minutes. Each treatment was done in triplicate, where A=media, B=HSV-1 MOI of 0.001, C=100 μM peptide and virus, D=50 μM peptide and virus, E=25 μM peptide and virus, F=10 μM peptide and virus, G=5 μM peptide and virus, H=2.5 μM peptide and virus. HCMV gB peptides (Peptide 174-200 (SEQ ID NO: 3), Peptide 233-263 (SEQ ID NO: 4), and Peptide 264-291 (SEQ ID NO: 5)) that are within domain II were inhibitory against HSV-1 infection. Peptide 476-494 (SEQ ID NO: 7) corresponds to trimerization domain of HCMV gB that contains extended α-helices important in the formation of HCMV gB homotrimer during fusion of HCMV virion and lipid membrane of the host cell. Overlapping inhibitory HSV-1 peptides span regions 496-510 and 501-515 of HSV-1 gB (SEQ ID NO: 8) and are analogous to HCMV gB Peptide 476-494 (SEQ ID NO: 7).
To evaluate the ability of HCMV gB peptides to inhibit infection by HSV-1, Vero cells were plated at a density of about 1.5×10^5 cells in each well of a 24 well-plate 24 hours prior to infection. The cells were washed and mock- or virus-infected for about 90 minutes at room temperature with HSV-1 McIntyre strain (ATCC) of about 0.001 MOI preincubated with a range of concentrations of four different synthetic peptides at about 37° C. for about 90 minutes. After exposure to the virus, the virus mixture was removed and the cells were overlayed with 2% FBS MEM containing 1% methylcellulose. Cells were incubated for about 48 hours at about 37° C. After about 48 hours, the cells were fixed, stained with Crystal Violet, and air dried.
In FIG. 6, each treatment was done in triplicate, where A=media, B=HSV-1 MOI of 0.001, C=100 μM peptide and virus, D=50 μM peptide and virus, E=25 μM peptide and virus, F=10 μM peptide and virus, G=5 μM peptide and virus, H=2.5 μM peptide and virus. […] Peptide 476-494 (SEQ ID NO: 7) corresponds to the trimerization domain of HCMV gB, which contains extended α-helices important in the formation of HCMV gB homotrimer during fusion of HCMV virion and lipid membrane of the host cell. Overlapping inhibitory HSV-1 peptides that span regions 496-510 and 501-515 of the HSV-1 gB protein (SEQ ID NO: 8) are analogous to HCMV gB peptide 476-494 (SEQ ID NO: 7). As predicted, HCMV Peptide 476-494 (SEQ ID NO: 7) worked best at the concentration of about 2.5 μM.

HCMV TRpMIA = assay: Inhibition of HCMV TRpMIA infection of HFF cells (IE-1/IE-2 positive cells); type: cell-based, Human Cytomegalovirus (HCMV); details: for significance of inhibition of infection: vs non-treated infected control
Method: In order to assess the ability of the peptides of the present invention to inhibit a clinically significant HCMV (HCMV TRpMIA), Peptide 174-200 (SEQ ID NO:3), Peptide 233-263 (SEQ ID NO: 4), and Peptide 264-291 (SEQ ID NO: 5), were tested for inhibition of HCMV TRpMIA infection of HFF cells under the assay conditions similar to these described in Example 2 for the Towne strain of HCMV, above. In particular, HFF cells were plated in 96-well plates at a density of about 10,000 cells-per-well about 24 hours […]. Individual inhibitory peptides were evaluated against 0.5 MOI HCMV TRpMIA preincubated with various concentrations in the range of about 0.078 micromolar to about 100 micromolar. The results obtained from these assays are shown in FIG. 13, FIG. 14, and FIG. 15 for Peptide 174-200, Peptide 233-263, and Peptide 264-291, respectively. The degree of HCMV infection was determined by evaluating the number of cells expressing immediate-early 1 (IE-1) or IE-2 HCMV proteins 24 hours post-infection. Treatments resulting in significant reductions in the number of cells that were positive for IE 1, IE-2, or both, compared to non-treated control HCMV infected cells, are denoted by a * (p<0.05), ** (p<0.01), and *** (p<0.001, one-way ANOVA and Tukey's post test). Variants and derivatives of Peptide 233-263 (SEQ ID NO: 4) also were prepared and tested in the same assay. The sequences of the tested variants and derivatives are shown in Table 4, with additions or modifications from SEQ ID NO: 4 shown in boldface type.

[1] = pregnancy; cited from earlier work
HIV-1 = details: cited from earlier work
[2] = 25 micromolar, 24 hours post-infection
[3] = 50 micromolar, 24 hours post-infection
[4] = 100 micromolar, 24 hours post-infection
[5] = 25 micromolar to 100 micromolar

Substance: HNLVYAQLQFTYDTLRGYI (human cytomegalovirus glycoprotein B peptide) [Peptide 476-494, synthetic peptide of the trimerization domain of HCMV gB, residues 476-494]
- number of HCMV infected cells versus peptide concentration (Towne GFP strain of HCMV; decreasing peptide concentration): the number of HCMV infected cells decreased as the concentration of this peptide decreased
- inhibitory activity against HCMV strain Towne-GFP (Towne GFP strain of HCMV; high concentrations tested): did not show any inhibitory activity
- concentration at which the peptide worked best against HSV-1 (HSV-1 McIntyre strain): about 2.5 μM

Substance: WHSRGSTWLYRAETANLNAMLTITTARSKYPY (Modified HCMV gB peptide) [Peptide 233-263.5]
- inhibition of HCMV TRpMIA infection compared to Peptide 233-263 (HCMV TRpMIA): less effective
- inhibition relative to the controls (HCMV TRpMIA): some level of inhibition

Substance: WHSRGSTWLYRETANLNAMLTITTARSKYPYGRKKRRQRRRP (human cytomegalovirus glycoprotein B peptide) [Peptide 233-263.8]
- inhibition of HCMV TRpMIA infection compared to Peptide 233-263 (HCMV TRpMIA): less effective
- inhibition relative to the controls (HCMV TRpMIA): some level of inhibition

Substance: KDQWHSRGSTWLYRETANLNAMLTITTARSKYPYHFFATS [Peptide 233-263.4]
- inhibition of HCMV TRpMIA infection compared to Peptide 233-263 (HCMV TRpMIA): less effective
- inhibition relative to the controls (HCMV TRpMIA): some level of inhibition

Substance: WHSRGSTWLYRETANLNAMLTITTARSKYPYHFF (Modified HCMV gB peptide) [Peptide 233-263.3]
- inhibition of HCMV TRpMIA infection compared to Peptide 233-263 (HCMV TRpMIA): less effective
- inhibition relative to the controls (HCMV TRpMIA): some level of inhibition

Substance: WEIHHINKFAQAYSSYSRVIGGTVFVA [Peptide 174-200]
- inhibition of viral infection (Towne GFP strain of HCMV; peptide 2.5 μM): ~62%
- inhibition of viral infection (Towne GFP strain of HCMV; peptide 5 μM): about 51%
- inhibition of viral infection (Towne GFP strain of HCMV; peptide 100 μM): about 80%
- inhibition of HSV-1 infection (HSV-1 McIntyre strain): inhibited HSV-1 infection
- significance of inhibition of infection (HCMV TRpMIA; [2]): ** (** (p<0.01))
- significance of inhibition of infection (HCMV TRpMIA; [3]): * (* (p<0.05))
- significance of inhibition of infection (HCMV TRpMIA; [4]): *** (*** (p<0.001, one-way ANOVA and Tukey's post test))

Substance: WHSRGSTWLYRETANLNAMLTITTARSKYPYP (Modified HCMV gB peptide) [Peptide 233-263.6]
- inhibition of HCMV TRpMIA infection compared to Peptide 233-263 (HCMV TRpMIA): less effective
- inhibition relative to the controls (HCMV TRpMIA): some level of inhibition

Substance: WHSRGSTWLYRETANLNAMLTITTARSKYPYRRRRRRRRR (human cytomegalovirus glycoprotein B peptide) [Peptide 233-263.9]
- extent of inhibition of infection (HCMV TRpMIA; [5]): almost complete inhibition
- significance of inhibition of infection (HCMV TRpMIA; [5]): *** (*** (p<0.001, one-way ANOVA and Tukey's post test))
- inhibition of HCMV TRpMIA infection compared to Peptide 233-263 (HCMV TRpMIA): significant improvement

Substance: FFIFPNYTIVSDFGRPNAA (human cytomegalovirus glycoprotein B peptide) [Peptide 297-315, synthetic peptide of HCMV gB residues 297-315]
- inhibition of viral infection (Towne GFP strain of HCMV; peptide 50 μM): about 40%

Substance: KDQWHSRGSTWLYRETANLNAMLTITTARSKYPY (Modified HCMV gB peptide) [Peptide 233-263.1]
- inhibition of HCMV TRpMIA infection compared to Peptide 233-263 (HCMV TRpMIA): less effective
- inhibition relative to the controls (HCMV TRpMIA): some level of inhibition

Substance: VTVKDQWHSRGSTWLYRETANLNAMLTITTARSKYPY (Modified HCMV gB peptide) [Peptide 233-263.2]
- inhibition of HCMV TRpMIA infection compared to Peptide 233-263 (HCMV TRpMIA): less effective
- inhibition relative to the controls (HCMV TRpMIA): some level of inhibition

Substance: WHSRGSTWLYRETANLNAMLTITTARSKYPY [Peptide 233-263]
- inhibition of infection seen in fluorescent and bright light images (FIG. 4) (Towne GFP strain of HCMV; 100 μM, MOI 0.5, 48 hours post-infection): effectively inhibited infection of the cells
- inhibition of viral infection (Towne GFP strain of HCMV; peptide 2.5 μM): about 60%
- inhibition of viral infection (Towne GFP strain of HCMV; peptide 50 μM): about 92%
- inhibition of viral infection (Towne GFP strain of HCMV; peptide 100 μM): about 97%
- inhibition of HSV-1 infection (HSV-1 McIntyre strain): inhibited HSV-1 infection
- significance of inhibition of infection (HCMV TRpMIA; 5 micromolar, 24 hours post-infection): * (* (p<0.05))
- significance of inhibition of infection (HCMV TRpMIA; 10 micromolar, 24 hours post-infection): *** (*** (p<0.001, one-way ANOVA and Tukey's post test))
- significance of inhibition of infection (HCMV TRpMIA; [2]): *** (*** (p<0.001, one-way ANOVA and Tukey's post test))
- significance of inhibition of infection (HCMV TRpMIA; [3]): *** (*** (p<0.001, one-way ANOVA and Tukey's post test))
- extent of inhibition of infection (HCMV TRpMIA; 50 to 100 micromolar): almost complete inhibition
- significance of inhibition of infection (HCMV TRpMIA; [4]): *** (*** (p<0.001, one-way ANOVA and Tukey's post test))

Substance: enfuvirtide
- crossing of the placenta [1]: does not cross the placenta
- vertical transmission of HIV-1 in pregnancy (HIV-1): prevents vertical transmission of HIV-1 in pregnancy

Substance: HFFATSTGDVVYISPFYNGTNRNASYFG (human cytomegalovirus glycoprotein B peptide) [Peptide 264-291, synthetic peptide of HCMV gB residues 264-291]
- inhibition of viral infection (Towne GFP strain of HCMV; peptide 5 μM): about 70.5%
- inhibition of HSV-1 infection (HSV-1 McIntyre strain): inhibited HSV-1 infection
- significance of inhibition of infection (HCMV TRpMIA; [3]): * (* (p<0.05))
- significance of inhibition of infection (HCMV TRpMIA; [4]): * (* (p<0.05))

From patent US9434769B2, “Peptide compositions and methods for inhibiting herpesvirus infection” (priority 2009, dated 2016)
